# Assay results taken from publication PMC5531531, “A synthetic cationic antimicrobial peptide inhibits inflammatory response and the NLRP3 inflammasome by neutralizing LPS and ATP” (PLoS ONE, 2017).
# No end group written: not given here.
# Key:
# [1] = tested on: iNOS and COX-2 in E. coli-LPS-activated RAW 264.7 macrophages; assay: iNOS and COX-2 expression (Western blot, quantitative real-time PCR); type: cell-based, mouse
# Experimental: The protein expression levels of iNOS, COX-2, ERK1/2, JNK1/2, p38, IκB-α, PKC, caspase-1 and the phosphorylation levels of ERK1/2, JNK1/2, p38, PKC-α, PKC-δ, IκB-α were determined by Western blotting as described in detail previously.
# RAW 264.7 (2 × 10^6 in 2 ml of medium) were seeded in 6-cm dishes and then treated with or without LPS (0.1 μg/ml) in the absence or presence of AMP for 6 h. Total RNA was extracted from the treated cells by TRIzol reagent (Gibco, Grand Island, NY, USA) and the cDNA was prepared as described in detail previously. The mRNA expression levels of iNOS and COX-2 were measured by quantitative real-time PCR using the StepOne real-time PCR system (Applied Biosystems, Foster City, CA, USA). The primers used were: for mouse iNOS, forward 5- […]-3 and reverse 5-TGAACGAGGAGGGTGGTG-3; for mouse COX-2, forward 5-[…]-3 and reverse 5-[…]-3. The gene expression data are presented as the relative expression (LPS group as 100%) normalized to that of glyceraldehyde-3-phosphate dehydrogenase (GAPDH).
# THP-1 macrophages = type: cell-based, human
# Experimental: RAW 264.7 cells or THP-1 macrophages (5 × 10^3 in 0.1 ml of medium) were seeded in 96-well plates and then incubated with various doses of AMP for 24 h. An AlamarBlue® assay (AbD Serotec, Oxford, UK) was used to determine the cytotoxicity of the test AMP. The procedure was conducted following the protocol described in the manufacturer’s instructions.
# [2] = Western blot, E. coli LPS 0.1 μg/ml 24 h, Fig 1C
# [3] = quantitative real-time PCR, E. coli LPS 0.1 μg/ml 6 h, Fig 1D
sequence,measurement,setting,value
GAKYAKIIYNYLKKIANALW [GW-A2],COX-2 protein expression level,[1]; [2],inhibited
same,iNOS protein expression level,[1]; [2],inhibited
same,"Inhibitory activity on COX-2 protein expression, 4 μM compared to 2 μM","[1]; Western blot, 4 μM of GW-A2 compared to 2 μM",lower inhibitory activity
same,COX-2 mRNA expression level,[1]; [3],inhibited
same,iNOS mRNA expression level,[1]; [3],inhibited
same,Viability of THP-1 macrophages,THP-1 macrophages,did not reduce
